Where a SMILES comes first, the peptide text is derived from it. Bridges are numbered along the chain shown (N, C = ends). The star is where a group is joined. MeO(CH2CH2O)23CH2CH2CO = COCCOCCOCCOCCOCCOCCOCCOCCOCCOCCOCCOCCOCCOCCOCCOCCOCCOCCOCCOCCOCCOCCOCCOCCC(=O)*
What was measured:
FGFR3^ach mice = assay: efficacy in mouse model of mild achondroplasia; format: in vivo; conditions: 200 nmol/kg s.c. once daily for 5 weeks
Description: To assess the biodistribution of CNP37 in the bone growth plate in vivo and the in vivo effects of CNP37 on the growth plate (including total growth plate thickness, hypertrophic zone thickness, and cellularity of proliferating zone), bone samples were obtained from FGFR3^ach mice treated with vehicle or CNP37 as described above. For biodistribution and in vivo effects studies, tibias were fixed and stored in 70% ethanol. For immunohistochemistry, the samples were decalcified in 5% formic acid for 2 days, dehydrated and embedded in paraffin. Bones were sectioned at 5 um (microns), which were then deparaffinized, rehydrated, and used for CNP immunohistochemistry as described above. For cellular image analysis, bones were sectioned at 5 (microns), and then deparaffinized, rehydrated, and stained with Alcian Blue for 30 minutes (pH 2.5; MasterTech) and Hematoxylin &
Eosin for 30 seconds. Stained sections were visualized and photographed by brightfield microscopy. Thicknesses of the growth plate and the proliferating and hypertrophic zones were measured using ImageJ software.
The efficacy of CNP variants in enhancing growth and correcting achondroplasia was tested in a mouse model of mild achondroplasia, using a strain of transgenic mice expressing a human FGFR-3 gene having a G380R mutation (FGFR3^ach) (Wang et al., Proc. Natl. Acad. Sci. USA, 96(8): 4455-4460 (1999); Naski et al., Development USA, 125: 4977-4988 (1998); U.S. Pat. Nos. 6,265,632 and 6,136,040).
At 3 weeks of age, FGFR3^ach mice and their wild-type littermates were anesthetized to have lateral whole-body X-ray images taken by Faxitron, and randomized by body weight into the following treatment groups (n=8/group): (1) wild-type/vehicle, (2) FGFR3^ach/vehicle, (3) FGFR3^ach/CNP37, and (4) FGFR3^ach/PEO24-GANRR-CNP22(K4R) (SEQ ID NO: 36). The mice received once daily subcutaneous (s.c.) administration of designated test article (vehicle or 200 nmol/kg CNP variant) for 5 weeks. Satellite groups (n=3) were used to confirm exposure of each test article following a single subcutaneous administration on Day 1. Wild-type male FVB mice that received daily s.c. injection of vehicle for 5 weeks were used as a control for normal growth.
X-ray measurements at baseline and at the end of the study were performed to determine change in the head length, area of the skull, and the external auditory meatus (EAM, the ear canal running from the outer ear to the middle ear). Body weight and tail length were measured at least once weekly, using a digital caliper to measure tail length, and body (nasoanal) length was measured after 5 weeks of treatment. Bone (tibia, femur, ulna and humerus) lengths were measured using a digital caliper at necropsy.
On Day 37, all mice were sacrificed by terminal anesthesia and whole-animal photographs and X-ray images by Faxitron were taken. Left and right tibia, femur, humerus, and ulna were collected and measured using a digital caliper. The left portions of each bone were processed for histology, and the right portions were snap-frozen for archival. Samples obtained from the bones were used to evaluate the effects of NP variants on endochondral bone growth.

cGMP = assay: plasma cGMP concentration in rats; format: in vivo, rat
Protocol: Recombinant wild-type CNP22, CNP37 and PEO24-GANRR-CNP22 (K4R) (SEQ ID NO: 36) were evaluated.
Plasma cGMP concentrations in the sample at 5, 30, 60 and 90 minutes after i.v. dosing, or at 5, 30, 60, 120 and 180 minutes after s.c. dosing, were determined by the competitive RIA using anti-cGMP monoclonal antibody. Standard samples were prepared. 100 uL of the assay samples (standard solutions for the calibration curve or the diluted plasma samples for cGMP determination) were transferred to test tubes. Then 100 uL of anti-cGMP monoclonal antibody solution and 100 uL of ^125I-labeled succinyl cGMP tyrosine methyl ester solution were added to the tubes, respectively. All tubes were kept at 4° C. overnight. After the addition of 500 uL dextran charcoal solution, the tubes were vortexed and then placed on ice for 10 minutes. The reaction mixture was centrifuged and 500 uL of the supernatant was transferred from each sample to a new test tube. The amount of radiation (gamma line) in the supernatant was measured by a gamma-counter.

For CC[C@H](C)[C@@H]1NC(=O)[C@H](CCCNC(=N)N)NC(=O)[C@H](CC(=O)O)NC(=O)[C@H](CC(C)C)NC(=O)[C@H](CCCCN)NC(=O)[C@H](CC(C)C)NC(=O)CNC(=O)[C@H](Cc2ccccc2)NC(=O)[C@@H](NC(=O)CNC(=O)[C@H](CCCNC(=N)N)NC(=O)[C@H](CO)NC(=O)[C@H](CC(C)C)NC(=O)CNC(=O)[C@H](CCCNC(=N)N)NC(=O)[C@H](CCCNC(=N)N)NC(=O)[C@H](CC(N)=O)NC(=O)[C@H](C)NC(=O)CNC(=O)CCOCCOCCOCCOCCOCCOCCOCCOCCOCCOCCOCCOCCOCCOCCOCCOCCOCCOCCOCCOCCOCCOCCOCCOC)CSSC[C@@H](C(=O)O)NC(=O)CNC(=O)[C@H](CC(C)C)NC(=O)CNC(=O)[C@H](CO)NC(=O)[C@H](CCSC)NC(=O)[C@H](CO)NC(=O)CNC1=O [PEO24-GANRR-CNP22(K4R)] ({MeO(CH2CH2O)23CH2CH2CO}-GANRRGLSRGCFGLKLDRIGSMSGLGC-OH; disulfide 11-27), the “Femur length, relative to vehicle-treated FGFR3^ach mice = 100%” value (FGFR3^ach mice) was 100%, the “Humerus length, relative to vehicle-treated FGFR3^ach mice = 100%” value (FGFR3^ach mice) was 100% and the “Naso-Anal length, relative to vehicle-treated FGFR3^ach mice = 100%” value (FGFR3^ach mice) was 99%. For the same molecule, the “Tail length, relative to vehicle-treated FGFR3^ach mice = 100%” value (FGFR3^ach mice) was 100%, the “Tibia length, relative to vehicle-treated FGFR3^ach mice = 100%” value (FGFR3^ach mice) was 102% and the “Ulna length, relative to vehicle-treated FGFR3^ach mice = 100%” value (FGFR3^ach mice) was 101%. For the same molecule, the “plasma levels of cGMP compared with CNP22” value (cGMP; i.v. 20 nmol/kg, at 30, 60 and 90 minutes) was “much higher plasma levels of cGMP” and the “plasma concentrations of cGMP compared with CNP22” value (cGMP; s.c. 50 nmol/kg) was “substantially higher plasma concentrations of cGMP”.

Source: patent USRE48267E1, “Variants of C-type natriuretic peptide” (priority 2009, dated 2020)
